Assay results reported in patent publication US11918561B2, “Treatment of breast cancer using combination therapies comprising GDC-9545 and a CDK4/6 inhibitor” (Genentech, Inc., priority 2020, dated 2024).

Assays:
[1] = system: patients with ER+ (HER2−) metastatic breast cancer; conditions: human, in vivo
Excerpt: A graded adverse event refers to the severity grading scale as established for by NCI CTCAE. In one embodiment, the adverse event is graded in accordance with the table below.
No prior treatment with CDK4/6i was allowed in patients receiving palbociclib.

[2] = system: ER+ (HER2−) metastatic breast cancer; experiment: Clinical activity (clinical benefit, response, PFS; RECIST v1.1); assay type: in vivo, human
Excerpt: “Objective response rate” or “ORR” refers the percentage of patients with a confirmed complete response or partial response on two consecutive occasions ≥4 weeks apart, as determined by the investigator according to RECIST v1.1
“Progression free survival” or “PFS” refers to the time from enrollment to the date of the first recorded occurrence of disease progression, as determined by the investigator using RECIST v1.1 or death from any cause, whichever occurs first.
“Clinical benefit rate” or “CBR” refers to the percentage of patients with stable disease for at least 24 weeks or with confirmed complete or partial response, as determined by the investigator according to RECIST v1.1.
Clinical Activity. In Cohort A 22/40 patients (55%) derived clinical benefit defined as patients with CR, PR or first occurrence of progressive disease observed on or after 24 weeks.

ER pathway signature = experiment: Pharmacodynamics: ER pathway signature score in paired biopsies; assay type: in vivo, human; conditions: 8/12; pre- and on-treatment biopsies (n=12); cohort not stated
Excerpt: An “ER pathway activity score” as used herein, refers to a numerical value that reflects mathematical difference between the E2-induced score and the E2-repressed score.
Breast cancer is a heterogeneous disease with many distinct subtypes as defined by molecular signatures and a diverse array of mutational profiles. Patients described herein can be tested for ER+ HER2− laBC or mBC using diagnostic methods, or kits to inform treating or predict of responsiveness of a pateint to the combination therapies described herein. In one embodiment, a patient can be tested by determining an ER pathway activity score such as those described in US Patent Application Publication 20200082944. In some embodiments, a patient sample is taken and tested to determine an ER pathway activity score. The score can be calculated using a 41-gene signature by subtracting an E2-repressed score (as determined from the average z-scored expression of genes comprising BAMBI, BCAS1, CCNG2, DDIT4, EGLN3, FAM171B, GRM4, IL1R1, LIPH, NBEA, PNPLA7, PSCA, SEMA3E, SSPO, STON1, TGFB3, TP531NP1, and TP531NP2) from an E2-induced score (as determined from the average z-scored expression of genes set forth in AGR3, AMZ1, AREG, C5AR2, CELSR2, CT62, FKBP4, FMN1, GREB1, IGFBP4, NOSIAP, NXPH3, OLFM1, PGR, PPMIJ, […], RBM24, RERG, RET, SGK3, SLC9A3R1, TFF1, and ZNF703).

PR = experiment: Pharmacodynamics: PR protein level in paired pre- and on-treatment biopsies; assay type: in vivo, human; conditions: 7/8, cohort not stated
[3] = Pharmacokinetics of GDC-9545 and palbociclib in patients; assay type: in vivo, human
Excerpt: Pharmacokinetics. […] Palbociclib PK was not altered when given with GDC-9545 and was consistent with reported values.

[4] = system: ESR1 mutant allele (ctDNA); experiment: ctDNA ESR1 mutant allele frequency, change from baseline; assay type: in vivo, human; conditions: all patients in both cohorts (n=26)
ER = target: T1, ER (Homo sapiens, UniProt P03372); experiment: Pharmacodynamics: ER protein level in paired pre- and on-treatment biopsies; assay type: in vivo; conditions: 10/12; pre- and on-treatment biopsies (n=12); cohort not stated
T1 construct: from tissue; host or cells: patients' tumour biopsies (pre- and on-treatment)
T1 sequence (P03372 1-595): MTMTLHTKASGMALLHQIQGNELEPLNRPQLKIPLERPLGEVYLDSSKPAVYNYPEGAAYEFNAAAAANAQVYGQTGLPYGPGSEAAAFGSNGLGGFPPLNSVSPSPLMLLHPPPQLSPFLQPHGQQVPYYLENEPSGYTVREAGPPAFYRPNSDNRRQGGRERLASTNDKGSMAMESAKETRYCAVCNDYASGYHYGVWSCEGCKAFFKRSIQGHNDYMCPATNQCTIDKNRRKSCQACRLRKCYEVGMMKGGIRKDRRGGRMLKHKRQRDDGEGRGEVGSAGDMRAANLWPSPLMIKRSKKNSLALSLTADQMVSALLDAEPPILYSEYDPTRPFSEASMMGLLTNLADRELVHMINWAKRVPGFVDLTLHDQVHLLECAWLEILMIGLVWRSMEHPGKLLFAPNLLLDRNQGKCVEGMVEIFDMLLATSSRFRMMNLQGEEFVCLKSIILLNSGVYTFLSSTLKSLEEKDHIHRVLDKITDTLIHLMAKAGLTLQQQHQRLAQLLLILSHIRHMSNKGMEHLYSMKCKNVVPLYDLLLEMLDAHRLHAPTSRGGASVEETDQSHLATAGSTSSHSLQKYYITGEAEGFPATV

[5] = system: patients with ER+ (HER2−) metastatic breast cancer; experiment: Reason for discontinuation of study treatment; assay type: in vivo; conditions: Cohort A n = 40, Cohort B n = 48
[6] = Cohort A n = 40, Cohort B n = 48
[7] = of 31 (Cohort A) and 45 (Cohort B) patients with measurable disease

Structure (SMILES): C[C@@H]1Cc2c([nH]c3ccccc23)[C@@H](c2c(F)cc(NC3CN(CCCF)C3)cc2F)N1CC(F)(F)CO [GDC-9545, 3-((1R,3R)-1-(2,6-difluoro-4-((1-(3-fluoropropyl)azetidin-3-yl)amino)phenyl)-3-methyl-1,3,4,9-tetrahydro-2H-pyrido[3,4-b]indol-2-yl)-2,2-difluoropropan-1-ol]
- Bradycardia AEs reported, patients [1]: 8%
- Grade 3 AEs related to GDC-9545 (others Grade 1-2) [1]: three Grade 3 events of fatigue, transaminase increased, and diarrhea
- Heart rate (HR) changes upon completion of treatment [1]: returned to baseline
- Patients who discontinued study treatment due to AEs [1]: No patients
- Patients with an AE related to GDC-9545 [1]: 58%
- Severity of bradycardia AEs [1]: all were Grade 1 and asymptomatic
- Treatment-emergent AEs (TEAE) reported, patients [1]: 78%
- Clinical benefit in patients with prior fulvestrant treatment ([2]; Cohort A 2/7, Cohort B 2/3): 29%
- Clinical benefit in patients with detectable ESR1 mutations at enrollment ([2]; Cohort A 8/13, Cohort B 11/11): 62%
- Patients who derived clinical benefit (CR, PR or first progressive disease on or after 24 weeks) ([2]; Cohort A 22/40, Cohort B 35/48): 55%
- Median PFS [2, 6]: 7.8 months
- Patients with an event of disease progression or death for PFS calculations [2, 6]: 55%
- CBR ([2]; Table 3): 55%
- ORR ([2]; Table 3): 13%
- Clinical benefit ([2]; number of patients as printed): 40
- Patients with confirmed response [2, 7]: 4
- Patients with unconfirmed response [2, 7]: 4
- Partial response ([2]; patients with measurable disease at baseline, Cohort A 4/31, Cohort B 14/45): 13%
- Reduced ER pathway signature scores, share of evaluable paired biopsies (ER pathway signature): 67%
- Reduced PR protein levels, share of evaluable paired biopsies (PR): 88%
- Exposure of GDC-9545 in combination with palbociclib versus single agent GDC-9545 [3]: generally comparable
- ctDNA ESR1 mutant allele frequency [4]: Decreases from baseline
- Reduced ER protein levels, share of evaluable paired biopsies (ER): 83%
- Reason for discontinuation: Death [5]: 1 (3%) patients (%)
- Reason for discontinuation: Disease progression [5]: 22 (55%) patients (%)

Structure (SMILES): CC(=O)c1c(C)c2cnc(Nc3ccc(N4CCNCC4)cn3)nc2n(C2CCCC2)c1=O [Palbociclib, 6-acetyl-8-cyclopentyl-5-methyl-2-{[5-(piperazin-1-yl)pyridin-2-yl]amino}pyrido[2,3-d]pyrimidin-7(8H)-one, reference compound]
- Palbociclib PK when given with GDC-9545 ([3]; consistent with reported values): not altered
